Test results as given in patent US20070299089A1, “Use of A2A Adenosine Receptor Agonists in the Treatment of Ischemia” (CV THERAPEUTICS, INC., priority 2006, published 2007).
Values after ≈ are worked out from the molar mass of the structure shown.

Legend:
[1] = Solubility in water; format: physicochemical
Method: In one aspect of this invention, mammalian ischemia is treated with a pharmaceutical composition including CVT-3146—regadenoson. Regadenoson has solubility in water of about 50 micrograms/mL. Therefore, regadenoson can be dissolved and administered in water so long as the desired weight amount of regadenoson can be administered in an acceptable volume. For example, a dose of about 400 micrograms can be administered in 8 mL of water. If this volume is too great for administration purposes, or if the pharmaceutical composition will be stored at other than room temperature (RT), then additional ingredients can be added to the composition to increase the solubility of regadenoson in the composition and/or to provide the resulting pharmaceutical composition with other improved properties such as improved stability and storage properties.

[2] = test system: mouse isolated hearts; assay: Coronary vascular resistance in Langendorff-perfused isolated hearts, Protocol 2 (CPP lowered to 30 mmHg and maintained for 50 min); conditions: n=6
Method: (§1) The objective of this example was to determine whether the selective and stable A2A agonist, regadenoson, can prevent or modify coronary microcirculation vasoconstriction during ischemia. To this purpose, in 60 mouse isolated hearts perfused in Langendorff configuration coronary vascular resistance (CVR) was continuously monitored for 70 min during various interventions using two different protocols. In hearts (n=9) perfused at a constant coronary perfusion pressure (CPP) of 65 mmHg CVR remained stable throughout the 70 min of the experiment.
In Protocol 2, CPP was lowered to 30 mmHg at 20 min and maintained for the remaining 50 min. In untreated hearts (n=9), the sustained lowering of CPP was accompanied by a progressive rise in CVR up to the end of the experiment when it reached a maximum of 240%±21 above baseline. Addition of regadenoson (10 nM) to the perfusate either at 10 (n=6) or 30 (n=6) min after lowering CPP caused a rapid and progressive vasodilation thereby bringing CVR to baseline values within 10 min. In summary, the isolated heart reacts to lowering of CPP with a progressive and severe vasoconstriction that can be prevented by pre-treatment with an A2A agonist.

[3] = test system: mouse isolated hearts; assay: Coronary vascular resistance in Langendorff-perfused isolated hearts, Protocol 1 (CPP lowered to 30 mmHg for 20 min, then restored to 65 mmHg); conditions: for increase in CVR during lowering of CPP: n=6, p<0.001
Method: as §1
In Protocol 1, CPP was lowered to 30 mmHg at 20 min, maintained for the following 20 min and restored to 65 mmHg for the remaining 30 min. In untreated hearts (n=12), lowering CPP for 20 min increased CVR up to a maximum of 191%±9 above baseline (P<0.001).

SMILES: CNC(=O)c1cnn(-c2nc(N)c3ncn([C@@H]4O[C@H](CO)[C@@H](O)[C@H]4O)c3n2)c1 [regadenoson, (1-{9-[(4S,2R,3R,5R)-3,4-dihydroxy-5-(hydroxymethyl)oxolan-2-yl]-6-aminopurin-2-yl}pyrazol-4-yl)-N-methylcarboxamide]
- solubility [1]: ~50 µg/mL (≈ 128 µM)
- time to bring CVR to baseline values ([2]; regadenoson 10 nM added to perfusate 10 min after lowering CPP): ≤ 10 min
- time to bring CVR to baseline values ([2]; regadenoson 10 nM added to perfusate 30 min after lowering CPP): ≤ 10 min
- maximum increase in CVR above baseline during lowering of CPP ([3]; regadenoson 3 nM, CPP 30 mmHg for 20 min, n=6, untreated hearts 191%±9): 131%±15
- elevated CVR remaining after restoring CPP to 65 mmHg ([3]; regadenoson 3 nM, untreated hearts 153%±10 above baseline): significantly reduced
- increase in CVR during lowering of CPP ([3]; regadenoson 10 nM, CPP 30 mmHg for 20 min): abolished the increase in CVR
- elevated CVR remaining after restoring CPP to 65 mmHg ([3]; regadenoson 10 nM, p<0.01): abolished
- increase in CVR during lowering of CPP ([3]; regadenoson 30 nM, CPP 30 mmHg for 20 min): abolished the increase in CVR
- elevated CVR remaining after restoring CPP to 65 mmHg ([3]; regadenoson 30 nM, p<0.01): abolished
